In patent US20180110781A1, “SYSTEM AND METHOD FOR DIAGNOSIS AND TREATMENT OF NEUROPSYCHIATRIC DISORDERS” (Research Foundation For Mental Hygiene, Inc., priority 2016, published 2018):
“Also recorded” adds a separate entry of the source. Counter-ions that a name gives are not always drawn.

Legend:
[1] = tested on: outpatients with schizophrenia or schizoaffective disorder; experiment: Six-week rater-blind multivitamin-controlled trial of Kuvan: Positive and Negative Symptom Scale (PANSS); type: in vivo, human
Description: (§1) A six-week, rater-blind, multivitamin-controlled trial of Kuvan® was performed at the Lieber Schizophrenia Research Clinic, New York State Psychiatric Institute. Clinically stable outpatients with schizophrenia or schizoaffective disorder were randomly assigned to receive Kuvan® (20mg/kg/day) or a single, daily multivitamin tablet, added to their medication regimen. Subjects were also genotyped for the GCH1 gene promotor polymorphism (r510137071). The primary clinical efficacy outcome was change in total Positive and Negative Symptom Scale (PANSS) scores, measured at baseline, then weeks 2, 4 and 6. Improvements in function was measured by the UPSA-B, at baseline, then week 6. The primary cognitive outcome was measured by the MCCB, measured at baseline and week 6. A priori defined secondary outcomes were PANSS factor scores and MCCB domain scores. Data were analyzed using a mixed effects repeated measures model (Stata v14.1, College Station, TX). Models included fixed effects of treatment, time (week) and the treatment by time interaction, with random subject and time effects. Genotype (GCH1 A allele versus GG genotype) was also included as a fixed effect in additional models. […] All hypothesis tests were two-sided, with significance determined at unadjusted p<0.05.

[2] = tested on: outpatients with schizophrenia or schizoaffective disorder; experiment: Six-week trial of Kuvan: MATRICS Consensus Cognitive Battery (MCCB); type: in vivo, human
Description: as §1

[3] = tested on: outpatients with schizophrenia or schizoaffective disorder; experiment: Six-week trial of Kuvan: UCSD Performance Based Skills Assessment-Brief (UPSA-B); type: in vivo, human
Description: as §1

[4] = tested on: outpatients with schizophrenia or schizoaffective disorder; set-up: species or system human; conditions: in vivo
Description: A six-week, rater-blind, multivitamin-controlled trial of Kuvan® was performed at the Lieber Schizophrenia Research Clinic, New York State Psychiatric Institute. Clinically stable outpatients with schizophrenia or schizoaffective disorder were randomly assigned to receive Kuvan® (20mg/kg/day) or a single, daily multivitamin tablet, added to their medication regimen. Subjects were also genotyped for the GCH1 gene promotor polymorphism (r510137071). The primary clinical efficacy outcome was change in total Positive and Negative Symptom Scale (PANSS) scores, measured at baseline, then weeks 2, 4 and 6. Improvements in function was measured by the UPSA-B, at baseline, then week 6. The primary cognitive outcome was measured by the MCCB, measured at baseline and week 6. A priori defined secondary outcomes were PANSS factor scores and MCCB domain scores.
No AEs were considered by the investigators to be serious. 75% (9/12) of subjects randomized to the multivitamin group and 61.5% (8/13) of those treated with Kuvan® experienced an AE, which was not statistically different (p=0.47). There was no statistically significant difference in the average number of AEs experienced by each subject (Kuvan=2.44±1.13; Multivitamin=3.0±2.07, p=0.49), or the degree to which each AEs was considered related to the study medication (Kuvan 18/24 total events; multivitamin 13/22 total events, p=0.35). Additionally, two subjects prematurely discontinued from the study based upon the predefined stopping rules, both of whom had been randomized to the multivitamin group.

[5] = did not reach two-tailed statistical significance

## C[C@H](O)[C@H](O)[C@H]1CNc2nc(N)[nH]c(=O)c2N1 [Kuvan®, saproterin dihydrochloride]
[1]; Kuvan 20mg/kg/day vs daily multivitamin, baseline to week 6, treatment*time p>0.05
  change in total PANSS score, treatment effect: no treatment effect
[1]; Kuvan vs multivitamin, six weeks
  PANSS factor scores (Positive, Negative and General Psychopathology), treatment*time effect: no significant treatment*time effect
[1]; p<0.1 for each visit compared to baseline
  genotype effect (treatment*time*genotype) on total PANSS score: A genotype effect was not observed
[2]; GCH1 A allele patients, study end (week 6), Kuvan n=5 p=0.044, multivitamin n=8 p=0.36 vs baseline
  MCCB composite score, final mean: 34.4±11.89
[2]; GCH1 A allele patients, Kuvan n=5, multivitamin n=8
  MCCB composite score, baseline mean: 28.4±8.62
[2]; GCH1 A allele versus GG, p=0.002, dihydrochloride
  interaction of treatment, time and genotype on the MCCB Composite Score: significant effect of GCH1 genotype by treatment group; also recorded: significant interaction
[2]; baseline to study end, Kuvan 4/5, multivitamin 2/8
  A allele carriers exhibiting improvement on the MCCB composite T score: 80%
[2]; baseline to week 6, p=0.085
  MCCB Social Cognition domain, Kuvan group versus multivitamin group: trend toward significance
[2]; [5]
  MCCB social cognition domain score, change from baseline: increased from baseline
  MCCB working memory domain score, change from baseline: increased from baseline
[2]; n=13 vs n=12 completers, baseline to week 6, p=0.05
  MCCB Working Memory domain, Kuvan group versus multivitamin group: performance improvement
[2]; paired t-test p=0.044
  cognitive change from baseline (MCCB composite) in GCH1 A allele patients: significant cognitive improvement
[2]; primary cognitive outcome, one-tailed trend p=0.0735
  MCCB composite score, treatment*time interaction: did not show a significant treatment*time interaction
[3]; baseline to week 6, p<0.001
  UPSA-B Financial subscale, Kuvan group versus multivitamin group: performance improvement
[3]; p=0.096
  treatment*time*genotype interaction on total UPSA-B score: trend towards significance
[3]; paired sample t-tests, Kuvan p=0.039, multivitamin p=0.025
  unadjusted UPSA-B Financial Subscale scores, change between baseline and study end: significant increase
[3]; primary functional outcome
  UPSA-B score, treatment*time interaction: did not show a significant treatment*time interaction
[4]; human, 6 weeks
  AEs considered related to the study medication: 18/24
  average number of AEs experienced by each subject: 2.44±1.13
  subjects who experienced an adverse event: 61.5%
[4]
  severity of adverse events: generally mild
